# Patent US7169812B2, “Process for producing injectable gabapentin compositions” (Medtronic, Inc., priority 2003, dated 2007)
# “Also recorded” adds a separate entry of the source.
# How the values were obtained:
# mouse = conditions: cited from earlier work
# Crl:CD(SD)IGS BR rats = assay: Intrathecal infusion toxicity study of heat-sterilized gabapentin solutions in rats (Day 1 to Day 29); assay type: in vivo; conditions: rat
# Protocol: Rats were infused intrathecally with solutions containing varying concentrations of gabapentin.
# Injectable solutions containing 80 mg/ml gabapentin were prepared and sterilized by heating to F0=24 as described in Example 1. The heat-sterilized 80 mg/ml gabapentin solutions were diluted in sterile water for injection, USP (Abbott Laboratories; North Chicago, Ill.) to prepare solutions at gabapentin concentrations of 1.67, 4.17, and 37.5 mg/ml as shown in Table 2.
# Osmotic minipumps(ALZET® Model 2ML4) were filled with approximately 2 ml of sterile water for Groups 1 and 6 or approximately 2 ml of the appropriate test article preparation for Groups 2 through 5. All dose preparations were filtered using a 0.22 μm filter prior to filling the osmotic minipumps.
# The animals were obtained from Charles River Laboratories; Raleigh, N.C.. The animals were cannulated by the supplier in the intrathecal space overlying the lumbar vertebrae. The cannulae consisted of 1.3 cm PE-10 tubing attached to a 7 cm piece of polyurethane tubing (0.025 ID×0.040 OD) with a total dead volume of approximately 23.5 μl. On Day 1 (staggered based on sex), the animals were anesthetized and one prefilled osmotic pump/animal was aseptically inserted subcutaneously on the animal's dorsum. The cannula was filled with sterile water or test article preparation, as appropriate, and the pumps were connected to the intrathecal cannulae. Beginning on Day 1, animals were dosed 24 hours/day at a dose volume of approximately 60.96 μl/day via intrathecal infusion using the osmotic minipump through necropsy on Day 29. At initiation of dosing, the animals were 8 to 9 weeks old, and their body weights ranged from 264 g to 340 g for the males and 191 g to 264 g for the females.
# Assessment of toxicity was based on mortality, clinical observations, ophthalmic examinations, body weights, food consumption, clinical pathology, and anatomic pathology. Ophthalmic examinations were performed prior to initiation of treatment and during week 4. An indirect ophthalmoscopy examination was done to include, but was not limited to, a cursory examination of the adnexa and anterior structures of the globe (e.g.,cornea, anterior chamber, lens) and a detailed examination of the ocular fundus. Body weights were taken prior to treatment, on Day 1, and weekly thereafter. Food consumption was measured weekly. At scheduled sacrifices, samples were taken for hematology, coagulation, and clinical chemistry. When possible, blood was collected from animals sacrificed at an unscheduled interval. Tissues were taken from each animal in groups 1 and 4 and each animal sacrificed at an unscheduled interval. Spinal cords were harvested from each animal in Groups 2, 3, and 5. The tissues and spinal cords were processed and examined microscopically. Macroscopic lesions were processed and examined microscopically from animals in Groups 2, 3, and 5. Sections of spinal cord from each animal in Groups 1 and 4 were embedded in paraffin, sectioned, and stained with luxol fast blue, and examined microscopically. Immunohistochemistry of spinal cord sections in paraffin from each animal in Groups 1 and 4 were sectioned, stained with anti-glial acidic fibrillary protein (Dako; Carpinteria, Calif.); rabbit IgG from Vector Laboratories; Burlingame, Calif. was used as a negative control), and examined. […]
# [1] = Tonicity of gabapentin dissolved in water; assay type: physicochemical; conditions: dissolved in water at 80 mg/ml
# Description: In an embodiment, the invention provides an injectable composition comprising gabapentin, where the composition is substantially isotonic with a physiological fluid of a subject. For example, the injectable solution may be isotonic with a subject's blood or cerebrospinal fluid. Cerebrospinal fluid typically has a tonicity of about 305 mOsm. Accordingly, an embodiment of the invention provides an injectable gabapentin composition having a tonicity of about 290 mOsm to about 320 mOsm. If an injectable composition comprising gabapentin has a tonicity lower than about 290 mOsm to about 320 mOsm, the tonicity may be enhanced by adding a tonicity enhancing agent, such as sodium chloride. As used herein, “tonicity enhancing agent” means a compound or composition that increases tonicity of a composition. However, such tonicities of between about 290 mOsm to about 320 mOsm are not always achievable with gabapentin compositions. For example, gabapentin dissolved in water at a concentration of 80 mg/ml has a tonicity of about 500 mOsm. When the concentration of gabaentin in an injectable composition renders the composition hypertonic relative to a subject's physiological fluid, it is preferred that little or no amount of a tonicity enhancing agent be added to the composition. […]
# [2] = water; basic and acidic aqueous solutions; cited from earlier work
structure (smiles),measurement,setting,value
"NCC1(CC(=O)O)CCCCC1 [gabapentin, 1-(aminomethyl)cyclohexane acetic acid]","toxicity (LD50, mouse)",mouse,more than 8000 mg/kg
same,Overall toxicity / tolerability,"Crl:CD(SD)IGS BR rats; continuous intrathecal infusion, 0.10, 0.25, 2.25 and 4.8 mg/day, solutions heated to F0=24, acetic acid",no toxic effects attributable to the infused solutions were observed; also recorded: well tolerated and non-toxic
same,Glial fibrillary acidic protein immunostaining of spinal cord sections,Crl:CD(SD)IGS BR rats; control vs high-dose group (4.8 mg/day),no significant variation
same,"Organ weight differences, macroscopic observations, microscopic observations",Crl:CD(SD)IGS BR rats; intrathecal,"no test article-related organ weight differences, macroscopic observations, or microscopic observations"
same,"Effects on clinical observations, body weights, body weight changes, food consumption, ophthalmic observations, clinical or anatomic pathology observations","Crl:CD(SD)IGS BR rats; intrathecal, 0.10-4.8 mg/day",No clear effects were observed
same,Effect on clinical pathology test results,"Crl:CD(SD)IGS BR rats; intrathecal, terminally sterilized by heat",no obvious or adverse effect
same,Tonicity,[1],about 500 mOsm
same,Solubility,[2],freely soluble
